Like-named read-outs stand apart in the source and are kept apart here.
Assays:
[1] = Subcutaneous and intravenous pharmacokinetics in healthy and irradiated Rhesus Macaques; type: in vivo
Protocol: We performed a cross-over comparison of subcutaneous and intravenous pharmacokinetics of Rx100.L-Lysine in six healthy Rhesus Macaques and subcutaneous pharmacokinetic and Pharmacodynamics of Rx100.L-Lysine after a single irradiation in six Rhesus Macaques.
Rhesus macaques (male, 3-5 kg) were administered vehicle control article (10 mM Histidine in sterile water for Injection, USP) or Rx100.Lysine salt as a single injection via subcutaneous injection or as an intravenous bolus as indicated in Table 32.
Blood was collected at baseline (7-10 days prior to dose administration), pre-dose (within 30 minutes), 0.5, 1, 2, 4, 6, 8, 24, 48, 72, 96, and 120 hours after dosing for phases 1 and 2. The phase 3 (post-irradiation phase) blood was collected at baseline (7-10 days prior to dose administration), pre-dose (within 30 minutes), 0.5, 1, 2, 4, 6, 8, 24, 48, 72, and 96 hours after dosing. The dose in phase 3 was administered approximately 24 hours after exposure to 11.5 Gy Partial Body Irradiation. Samples, approximately 1.0 mL, were collected and maintained on wet ice in vials containing Di-Potassium EDTA until centrifugation. Samples were stored in a freezer set to maintain −70° C. to −90° C. until shipped on dry ice for analysis.
Analysis was performed using qualified and validated Phoenix® WinNonlin® Software and RxBio™ SOP PRE-0030™, Phoenix® WinNonlin® Software for Statistical Analysis. The final data provided was imported into Phoenix® WinNonlin®. All data presented were generated using the validated Phoenix® WinNonlin® Software. Concentrations reported as BLOQ were treated as missing values for the purpose of this analysis. A non-compartmental pharmacokinetic analysis was performed for each subject separately for IV, SC, and SC+IR. The automatic terminal slope selector function was used along with nominal dose (1 mg/kg) with a dosing interval set at 120 hours since this was a single dose study. The terminal slope was selected from the last 3 quantifiable plasma concentrations for each subject (48-96 hours for the Phase 3 Irradiated subjects and 72-120 for all healthy subjects). Selected pharmacokinetic estimations are presented in Table 33, time of maximum concentration (Tmax (h)), maximum concentration observed (Cmax (ng/mL)), exposure or area under the concentration vs time curve (AUC (h*ng/mL)), volume of distribution (Vz_F ([…])), clearance (CL_F (mL/h/kg), and half-life (T½ or HL_Lambda_z (h)).

[2] = system: Sprague-Dawley rats; assay: Single-dose (and 7-day) subcutaneous toxicity in rats; type: in vivo
Protocol: In the second phase of the study, animals (n=3/sex/group) received 25 mg/kg/day for seven consecutive days with injections being rotated between two sites. Parameters evaluated included clinical signs, body weight, and gross pathology.

[3] = SC 1 mg/kg about 24 h after 11.5 Gy, Average of 6 animals
[4] = SC 1 mg/kg, healthy, Average of 6 animals
[5] = male, rhesus monkey, plasma, iv, 1 mg/kg, IV 1 mg/kg, healthy, Average of 6 animals
[6] = male, rhesus monkey, plasma, iv, 1 mg/kg, IV 1 mg/kg, healthy, individual animals (ID in c1)
[7] = male, rhesus monkey, plasma, sc, 1 mg/kg, SC 1 mg/kg about 24 h after 11.5 Gy, Average of 6 animals
[8] = male, rhesus monkey, plasma, sc, 1 mg/kg, SC 1 mg/kg, healthy, Average of 6 animals

## CCCCCCCC/C=C\CCCCCCCCOP(O)(O)=S [Rx100.L-Lysine, (Z)—O-octadec-9-en-1-yl O,O-dihydrogen phosphorothioate]
[1]; IV 1 mg/kg, healthy, Average of 6 animals
  λz: 0.049 ± 0.020 h⁻¹
[1]; [3]
  CL: 0.333 ± 0.12 mL/min/kg
  Vd: 0.251 ± 0.091 L/kg
  λz: 0.079 ± 0.006 h⁻¹
[1]; [4]
  Vd: 0.26 ± 0.083 L/kg
  λz: 0.066 ± 0.004 h⁻¹
[1]; SC post IR
  F: 0.89±0.2
[1]; SC post IR, 1 mg/kg
  clearance (CL): 0.333 ± 0.12 mL/min/kg
  volume of distribution (Vd): 0.251 ± 0.091 L/kg
[1]; SC, healthy, versus IV
  fraction absorbed after subcutaneous administration (F): 1.0±0.18
[1]; SC, healthy, single dose 1 mg/kg
  volume of distribution (Vd): 0.26 ± 0.083 L/kg
[1]; [5]
  AUC: 63200 ± 15100 ng·h/mL
  Cmax: 18600 ± 1760 ng/mL
[1]; male, rhesus monkey, plasma, iv, 1 mg/kg, IV 1 mg/kg, healthy, Average of 6 animals, read-out: AUCINF
  AUC(0-inf): 63200 ± 15100 ng·h/mL
[1]; male, rhesus monkey, plasma, iv, 1 mg/kg, IV 1 mg/kg, healthy, Average of 6 animals, read-out: CL (converted)
  clearance: 0.283 mL/min/kg
[1]; male, rhesus monkey, plasma, iv, 1 mg/kg, IV 1 mg/kg, healthy, Average of 6 animals, read-out: T1/2 (converted)
  half-life: 16.4 ± 7.29 h
[1]; male, rhesus monkey, plasma, iv, 1 mg/kg, IV 1 mg/kg, healthy, Average of 6 animals, read-out: Vd
  Vd: 0.428 ± 0.29 L/kg
[1]; [6]
  AUC: 73500 ng·h/mL
  Cmax: 15900 ng/mL
[1]; male, rhesus monkey, plasma, iv, 1 mg/kg, IV 1 mg/kg, healthy, individual animals (ID in c1), read-out: AUCINF
  AUC(0-inf): 73500 ng·h/mL
[1]; male, rhesus monkey, plasma, iv, 1 mg/kg, IV 1 mg/kg, healthy, individual animals (ID in c1), read-out: CL (converted)
  clearance: 0.233 mL/min/kg
[1]; male, rhesus monkey, plasma, iv, 1 mg/kg, IV, healthy, 1 mg/kg, read-out: clearance (CL) (converted)
  clearance: 0.283 mL/min/kg
[1]; male, rhesus monkey, plasma, iv, 1 mg/kg, IV, healthy, 1 mg/kg, read-out: exposure (AUCINF)
  AUC(0-inf): 63200 ± 15100 ng·h/mL
[1]; male, rhesus monkey, plasma, iv, 1 mg/kg, IV, healthy, 1 mg/kg, read-out: half-life (converted)
  half-life: 16.4 ± 7.29 h
[1]; male, rhesus monkey, plasma, iv, 1 mg/kg, IV, healthy, 1 mg/kg, read-out: volume of distribution (Vd)
  Vd: 0.428 ± 0.29 L/kg
[1]; male, rhesus monkey, plasma, iv, 1 mg/kg, IV, healthy, read-out: half-life, range of individual subjects
  half-life: 9.37 to 28.8 h
[1]; male, rhesus monkey, plasma, iv, 1 mg/kg, intravenous bolus, healthy
  Cmax: 18600 ± 1760 ng/mL
[1]; [7]
  AUC: 57300 ± 24200 ng·h/mL
  Cmax: 3110 ± 887 ng/mL
  Tmax: 4 ± 2 h
[1]; male, rhesus monkey, plasma, sc, 1 mg/kg, SC 1 mg/kg about 24 h after 11.5 Gy, Average of 6 animals, read-out: AUCINF
  AUC(0-inf): 57300 ± 24200 ng·h/mL
[1]; male, rhesus monkey, plasma, sc, 1 mg/kg, SC 1 mg/kg about 24 h after 11.5 Gy, Average of 6 animals, read-out: T1/2 (converted)
  half-life: 8.76 ± 0.621 h
[1]; male, rhesus monkey, plasma, sc, 1 mg/kg, SC 1 mg/kg about 24 h after 11.5 Gy, individual animals (ID in c1), read-out: T1/2 (converted)
  half-life: 9.21 h
[1]; [8]
  AUC: 63700 ± 21400 ng·h/mL
  Cmax: 3130 ± 637 ng/mL
  Tmax: 4 ± 2 h
[1]; male, rhesus monkey, plasma, sc, 1 mg/kg, SC 1 mg/kg, healthy, Average of 6 animals, read-out: AUCINF
  AUC(0-inf): 63700 ± 21400 ng·h/mL
[1]; male, rhesus monkey, plasma, sc, 1 mg/kg, SC 1 mg/kg, healthy, Average of 6 animals, read-out: T1/2 (converted)
  half-life: 10.5 ± 0.6 h
[1]; male, rhesus monkey, plasma, sc, 1 mg/kg, SC 1 mg/kg, healthy, individual animals (ID in c1)
  Cmax: 2390 ng/mL
[1]; male, rhesus monkey, plasma, sc, 1 mg/kg, SC 1 mg/kg, healthy, individual animals (ID in c1), read-out: T1/2 (converted)
  half-life: 10.6 h
[1]; male, rhesus monkey, plasma, sc, 1 mg/kg, SC post IR
  Cmax: 3110 ± 887 ng/mL
[1]; male, rhesus monkey, plasma, sc, 1 mg/kg, SC post IR (~24 hours after 11.5 Gy Partial Body Irradiation), 1 mg/kg
  Tmax: 4 ± 2 h
[1]; male, rhesus monkey, plasma, sc, 1 mg/kg, SC post IR, 1 mg/kg, read-out: exposure (AUCINF)
  AUC(0-inf): 57300 ± 24200 ng·h/mL
[1]; male, rhesus monkey, plasma, sc, 1 mg/kg, SC post IR, 1 mg/kg, read-out: half-life (converted)
  half-life: 8.76 ± 0.621 h
[1]; male, rhesus monkey, plasma, sc, 1 mg/kg, SC, healthy, read-out: T½, range of individual subjects
  half-life: 9.67 to 10.7 h
[1]; male, rhesus monkey, plasma, sc, 1 mg/kg, SC, healthy, single dose 1 mg/kg, read-out: exposure (AUCINF)
  AUC(0-inf): 63700 ± 21400 ng·h/mL
[1]; male, rhesus monkey, plasma, sc, 1 mg/kg, SC, healthy, single dose 1 mg/kg, read-out: half-life (converted)
  half-life: 10.5 ± 0.6 h
[1]; male, rhesus monkey, plasma, sc, 1 mg/kg, SC, irradiated animals, read-out: half-life, range of individual subjects
  half-life: 7.88 to 9.66 h
[1]; male, rhesus monkey, plasma, sc, 1 mg/kg, healthy, single dose 1 mg/kg
  Cmax: 3130 ± 637 ng/mL
[1]; male, rhesus monkey, plasma, sc, 1 mg/kg, healthy, single dose 1 mg/kg, mean ± SD
  Tmax: 4 ± 2 h
[2]; Phase I, rats given >50 mg/kg
  necropsy findings: scabs were observed on the skin overlying the injection site
[2]; Phase I, single SC dose >50 mg/kg, first 3 days post-dose
  body weight: transient loss of body weight
[2]; Phase I, single SC doses of >10 mg/kg, beginning several days post-dose
  skin findings: produced scabs
[2]; Phase II, 25 mg/kg/day for seven consecutive days
  body weight: transient body weight loss was followed by rebound
[2]; Phase II, 25 mg/kg/day for seven days
  necropsy findings: small organ size was noted for the epididymis, prostate, seminal vesicle, and testis of all three males
[2]; Phase II, 25 mg/kg/day for seven days, first two dosing sites
  dosing site findings: scabs developed with delayed onset
